The text below walks through data of US5232923A, “Catechol derivatives and pharmaceutical preparations containing same” (Mitsui Toatsu Chemicals, Incorporated, priority 1988, dated 1993).

In experiment [1] the test system is production and secretion of NGF in mouse L-M cells. Kind of experiment: Promoting activity for the production and secretion of NGF in mouse L-M cells (ELISA of medium after 24 h). The settings on record: L-M cells; for fold induction at 200 µM / fold induction at 400 µM: Mus musculus, 24 h, fold increase over control (1.00); for fold induction at 200 µM / NGF Concentration: Table 2, sample concentration 0.2 mM; for fold induction at 200 µM: read-out: NGF Increase Ratio; for NGF Concentration / NGF L-M Cell Concentration: 24 hours; for NGF Concentration: mean of four determinations, control 0.34; for fold induction at 400 µM / NGF L-M Cell Concentration: Table 5, 0.4 mM; for fold induction at 400 µM: read-out: NGF L-M Cell Increase Ratio; for NGF L-M Cell Concentration: control 0.87. In kind it is cell-based. On the procedure:
Promoting activity for the production and secretion of NGF in mouse L-M cells
The medium was cultured for 3 days at a temperature of 37° C. […] The sample of the derivative tested is contained in the medium at a prescribed concentration as illustrated in the Tables. […] Data are expressed as fold increase in NGF content of the medium over that cultivated in the absence of the derivative to be tested. […] Data are presented as the mean of four determinations. The results are illustrated in Tables 1-5.
(ELISA stands for enzyme-linked immunosorbent assay.)

In experiment [2] the test system is production and secretion of NGF in mouse brain astroglial cells. Kind of experiment: Promoting activity for the production and secretion of NGF in mouse brain astroglial cells (ELISA of medium after 24 h). It is filed as cell-based. The settings on record: for NGF Concentration / NGF Astroglial Cell Concentration: 24 hours; for NGF Astroglial Cell Concentration: control 31.8. As for the experimental part: Promoting activity for the production and secretion of NGF in mouse brain astroglial cells
The experiment was performed by inducing astroglial cells from the mouse forebrain to a culture system according to the procedures of S. Furukawa et al. which is described in Biochem. Biophys. Res. Commun., 136, 57-63 (1986).
Forebrains of 8-days old mice were dissected out and cut into small pieces. The pieces were washed with calcium- and magnesium-free phosphate-bufferedsaline (hereinafter abbreviated as PBS), treated with 0.25% trypsin containing PBS at 37° C. for 30 minutes and triturated with a Pasteur pipet to give a suspension. Cells and cell clumps were recovered by centrifugation at 200 xg for 5 minutes. They were cultured in Dulbecco modified Eagle's medium (a product of Gibco Co. hereinafter abbreviated as DMEM) containing 10% fetal calf serum, 50 μ units/ml of penicillin, and 50 μg/ml of streptomycin, for 10 to 14 days with medium changes every 3 days. After completing confluency, the cells were dissociated by trypsin treatment and recultured in new culture flasks. This procedure was repeated further twice and more. The culture became a uniform cell cluster. The cell cluster for use in this invention can be stained not less than 97% in accordance with the PAP staining method (peroxidase/[…] staining method) using anti-human glial fibrillar acidic protein (GFAP) rabbit antiserum. The cells will hereinafter be referred to as astroglial cells.
Astroglial cells were innoculated in 24-well plates having a well surface area of 2.1 cm^2 (a product of Falcon Co.) at a cell density of about 3×10^4 cells/well and cultured for 3 days in DMEM medium supplemented with 10% of fetal calf serum. After completing confluency about ([…]), the medium was changed to DMEM medium (0.5 ml/well) supplemented with 0.5% of bovine serum albumin (fraction V) and cultured for 3 days. The culture was further continued with medium changes every 3 days. After cells were practically synchronized in the quiscent stage, the medium was changed to 0.5 ml of the same medium and containing a prescribed concentration of test sample as illustrated in the Tables. NGF in the medium after cultivating for 24 hours was determined by the ELISA as mentioned above. Data are expressed as fold increase in NGF content over that in the absence of the test sample. The lower detection limit of the ELISA is 0.25 pg/ml and the NGF content of control medium was normally 1-10 pg/0.5 ml/well. Data are presented as the mean of four determinations. The results are illustrated in Tables 1-5.

[3] abbreviates: Mus musculus, 24 h, Table 4, sample concentration 0.4 mM, fold increase over control, read-out: NGF Increase Ratio.
Where [4] appears, read: Table 4, sample concentration 0.4 mM.
[5] abbreviates: Mus musculus, 24 h, Table 5, 0.4 mM, fold increase over control (1.00), read-out: NGF Astroglial Cell Increase Ratio.

Molecules are shown by their SMILES. Read-outs that look alike come from different tables or passages of the source.

Take `CN(C)C(=O)CCc1ccc(O)c(O)c1` [Compound 72]: the fold induction at 200 µM was found to be 5.91 in experiment [1] and 6.5 in experiment [2] (Mus musculus, 24 h, Table 4, sample concentration 0.2 mM, fold increase over control, read-out: NGF Increase Ratio). The “NGF Concentration” value in experiment [1] is reported as 1.94 ng/well; in experiment [2] (Table 4, sample concentration 0.2 mM), 280.6 ng/well.
Take `CC(=O)Oc1ccc(CCC(N)=O)cc1OC(C)=O` [Compound 73]: in experiment [1], the fold induction at 200 µM is 5.68 and the “NGF Concentration” value was 2.01 ng/well. Further, the fold induction at 400 µM in experiment [2] (setting [3]) stood at 7.65. Also, the “NGF Concentration” value in experiment [2] (setting [4]) was 330.6 ng/well.
As to `CCNC(=O)CCc1ccc(OC(C)=O)c(OC(C)=O)c1` [Compound 74], in experiment [1], the fold induction at 200 µM stood at 5.85 and the “NGF Concentration” value is recorded as 1.93 ng/well. Besides, the fold induction at 400 µM in experiment [2] (setting [3]) came to 6.53. Besides, in experiment [2] (setting [4]), the “NGF Concentration” value worked out at 282.2 ng/well.
On the same counts, the results for `CCNC(=O)Cc1ccc(OC(C)=O)c(OC(C)=O)c1` [Compound 76] are 5.47, 1.88 ng/well, 4.84 and 209.1 ng/well.
For the compound `CCNC(=O)CCCc1ccc(OC(C)=O)c(OC(C)=O)c1` [Compound 79], in experiment [1], the fold induction at 200 µM amounted to 5.35 and the “NGF Concentration” value came out at 1.82 ng/well. Moreover, the fold induction at 400 µM in experiment [2] (setting [3]) turned out to be 4.57. Also, the “NGF Concentration” value in experiment [2] (setting [4]) is listed as 197.3 ng/well.
In the same order, the values of `CC(=O)Oc1ccc(CCC(=O)N(C)C)cc1OC(C)=O` [Compound 81] are 5.76, 1.96 ng/well, 6.33 and 273.5 ng/well.
Take `CCCCNC(=O)CCc1ccc(O)c(O)c1` [Compound 84, N-n-Butyl-3,4-dihydroxyphenylpropionamide]: in experiment [1], the fold induction at 400 µM was found to be 6.2 and the “NGF L-M Cell Concentration” value amounted to 5.39 ng/well. In addition, the fold induction at 400 µM in experiment [2] (setting [5]) was 33.1. Also, in experiment [2] (Table 5, 0.4 mM), the “NGF Astroglial Cell Concentration” value is on record as 539.5 ng/well.
With `CCCCNC(=O)CCc1ccc(OC(C)=O)c(OC(C)=O)c1` [Compound 85, N-n-Butyl-3,4-diacetoxyphenylpropionamide], in experiment [1], the fold induction at 400 µM came out at 6.8 and the “NGF L-M Cell Concentration” value amounted to 5.92 ng/well. The fold induction at 400 µM in experiment [2] (setting [5]) came out at 33.6. The “NGF Astroglial Cell Concentration” value in experiment [2] (Table 5, 0.4 mM) is 547.7 ng/well.
For `CCCCCNC(=O)CCc1ccc(O)c(O)c1` [Compound 86, N-n-Pentyl-3,4-dihydroxyphenylpropionamide], in experiment [1], the fold induction at 400 µM worked out at 6.5 and the “NGF L-M Cell Concentration” value came out at 5.66 ng/well. For the same compound, in experiment [2] (setting [5]), the fold induction at 400 µM is 30.3. The “NGF Astroglial Cell Concentration” value in experiment [2] (Table 5, 0.4 mM) came out at 493.9 ng/well.
In the case of `CCCCCCNC(=O)CCc1ccc(O)c(O)c1` [Compound 87, N-n-Hexyl-3,4-dihydroxyphenylpropionamide], in experiment [1], the fold induction at 400 µM came to 5.8 and the “NGF L-M Cell Concentration” value stood at 5.05 ng/well. In experiment [2] (setting [5]), the fold induction at 400 µM turned out to be 12. The “NGF Astroglial Cell Concentration” value in experiment [2] (Table 5, 0.4 mM) is 195.6 ng/well.
`CCCCCCNC(=O)CCc1ccc(OC(C)=O)c(OC(C)=O)c1` [Compound 88, N-n-Hexyl-3,4-diacetoxyphenylpropionamide]: in experiment [1], the fold induction at 400 µM worked out at 6.2 and the “NGF L-M Cell Concentration” value was 5.39 ng/well. Moreover, the fold induction at 400 µM in experiment [2] (setting [5]) was determined as 15.8. Also, the “NGF Astroglial Cell Concentration” value in experiment [2] (Table 5, 0.4 mM) was 257.5 ng/well.
As for `CCCCCCCCCCCCNC(=O)CCc1ccc(O)c(O)c1` [Compound 89, N-Lauryl-3,4-dihydroxyphenylpropionamide], in experiment [1], the fold induction at 400 µM amounted to 4.3 and the “NGF L-M Cell Concentration” value is 3.74 ng/well. Also, the fold induction at 400 µM in experiment [2] (setting [5]) came to 5. In addition, in experiment [2] (Table 5, 0.4 mM), the “NGF Astroglial Cell Concentration” value turned out to be 81.5 ng/well.
Regarding `CCCCN(C)C(=O)CCc1ccc(O)c(O)c1` [Compound 90, N-n-Butyl-N-methyl-3,4-dihydroxyphenylpropionamide], in experiment [1], the fold induction at 400 µM is 6.4 and the “NGF L-M Cell Concentration” value is 5.57 ng/well. For the same compound, the fold induction at 400 µM in experiment [2] (setting [5]) was determined as 30. The “NGF Astroglial Cell Concentration” value in experiment [2] (Table 5, 0.4 mM) turned out to be 489.0 ng/well.
